Consider 1 substance from patent US20250060368A1, “METHODS OF DETECTING AND TREATING IMMUNOTHERAPY-RESISTANT CANCER” (Washington University, priority 2022, published 2025).

In test [1] the test system is B-ALL. Particulars: patients receiving blinatumomab or anti-CD19 CAR T for B-ALL; cited from earlier work.
Test [2] has as its system B-ALL. Nature of the test: Clinical case of B-ALL patient treated with blinatumomab and KTE-X19 (ZUMA-3). The following applies: person with B-ALL, CD19ΔTyr260. The format is in vivo, human. The procedure:
A person with B-ALL was treated with chemotherapy followed by 2 cycles of blinatumomab as initial therapy. […] B lymphoblasts. Using targeted RNA sequencing, an in-frame deletion within the extracellular domain of CD19 at […]) was identified (FIG. 6A).

Regarding “blinatumomab: CD19 bispecific T-cell engager approved for R/R B-ALL”, the “Patients in whom emergence of CD19-negative clones is a cause of relapse” value with B-ALL [1] is listed as 10%-20%. Further, the Clinical response result in the test on B-ALL [2] is “relapsed after the second cycle”.
